Results from PMC4138103 (PLoS ONE, 2014).
Where two headings read alike, the source gives them in different places.

System: Sprague-Dawley rats
Assay: Retinoid analyses in liver, serum and kidney
Assay type: in vivo, Rattus norvegicus
Conditions: for CED, Kidney all-trans RA amount / CED, Kidney all-trans RA concentration / CED, Kidney retinol amount / CED, Kidney retinol concentration / CED, Liver retinol amount / CED, Liver retinol concentration / CED, Liver retinyl esters amount / CED, Liver retinyl esters concentration / CED, Serum retinol concentration / CED-L, Kidney all-trans RA amount / CED-L, Kidney all-trans RA concentration / CED-L, Kidney retinol amount / CED-L, Kidney retinol concentration / CED-L, Liver retinol amount / CED-L, Liver retinol concentration / CED-L, Liver retinyl esters amount / CED-L, Liver retinyl esters concentration / CED-L, Serum retinol concentration / CED, Liver 9c-4o-13,14-dh-RA amount / CED, Liver 9c-4o-13,14-dh-RA concentration / CED-L, Liver 9c-4o-13,14-dh-RA amount / CED-L, Liver 9c-4o-13,14-dh-RA concentration / CED, Liver all-trans RA amount / CED, Liver all-trans RA concentration / CED-L, Liver all-trans RA amount / CED-L, Liver all-trans RA concentration / CED, Kidney retinyl esters amount / CED, Kidney retinyl esters concentration / CED-L, Kidney retinyl esters amount / CED-L, Kidney retinyl esters concentration: adipose tissue concentration based; for Emax: Rattus norvegicus, controls vs high dose according to the fitted model
Description: Retinoids in liver, serum, and kidney were analyzed according to Schmidt et al.. The polar retinoids 9-cis-retinoic acid (9-cis-RA), 13-cis-retinoic acid (13-cis-RA), 13-cis-4-oxo-retinoic acid (13-cis-4-o-RA), 9-cis-4-oxo-13,14-dihydro-retinoic acid (9-cis-4-o-13,14-dh-RA), all-trans retinoic acid (all-trans RA) and the apolar retinoids retinol and retinyl palmitate were extracted by a single liquid-extraction, separated from each other via solid-phase extraction using an aminopropyl phase, and then injected onto two different HPLC systems that were coupled with UV detection. […] The limits of detection (LOD) for all-trans RA and 9c-4o-13,14-dh-RA were 0.7 and 1.0 pmol/g tissue, and 0.3 and 0.6 pmol/ml serum, respectively. Retinol and retinyl palmitate were separated on a J'sphere ODS-H80 (4.6×150 mm, 4 µm particle size) obtained from YMC (Schermbeck, Germany), and were detected at 325 nm. The LOD for retinol and retinyl palmitate were 5.6 and 5.5 pmol/g tissue, and 4.2 and 4.2 pmol/ml serum, respectively.
Data were also analyzed using the BMD method, which is based on dose-response modeling of the full data set using a nested family of exponential and Hill models. The analyses were done on data of males and females combined, using sex as a covariate. […] In that case, different Critical Effect Doses (CEDs) and CEDs at the lowest bound of the confidence interval (CED-L) were generated for each sex. If no difference between sexes is detected, a CED and CED-Ls for the combined data is generated. However, this was also done if the curve fits are close, and separate analyses for males and females were then performed manually. CEDs and CED-Ls were calculated at the predefined Critical Effect Size (CES) of 5% (EFSA standard) or 10%.

Clc1cc(Cl)c(-c2cc(Cl)c(Cl)c(Cl)c2Cl)cc1Cl [PCB 180, 2,2′,3′,4,4′,5,5′-heptachlorobiphenyl]
CED, Kidney all-trans RA amount (F, CES 5%, model E2): 3290 µg/g lipid | CED, Kidney all-trans RA concentration (F, CES 5%, model E2): 2930 µg/g lipid | CED, Kidney retinol amount (F, CES 5%, model E2): 2240 µg/g lipid | CED, Kidney retinol concentration (F, CES 5%, model E2): 2060 µg/g lipid | CED, Liver retinol amount (F, CES 5%, model E2): 2840 µg/g lipid | CED, Liver retinol concentration (F, CES 5%, model E2): 1000 µg/g lipid | CED, Liver retinyl esters amount (F, CES 5%, model E2): 1620 µg/g lipid | CED, Liver retinyl esters concentration (F, CES 5%, model E2): 793 µg/g lipid | CED, Serum retinol concentration (F, CES 5%, model E2): 2470 µg/g lipid | CED-L, Kidney all-trans RA amount (F, CES 5%, model E2): 2092 µg/g lipid | CED-L, Kidney all-trans RA concentration (F, CES 5%, model E2): 2052 µg/g lipid | CED-L, Kidney retinol amount (F, CES 5%, model E2): 1398 µg/g lipid | CED-L, Kidney retinol concentration (F, CES 5%, model E2): 1346 µg/g lipid | CED-L, Liver retinol amount (F, CES 5%, model E2): 1476 µg/g lipid | CED-L, Liver retinol concentration (F, CES 5%, model E2): 762 µg/g lipid | CED-L, Liver retinyl esters amount (F, CES 5%, model E2): 1206 µg/g lipid | CED-L, Liver retinyl esters concentration (F, CES 5%, model E2): 670 µg/g lipid | CED-L, Serum retinol concentration (F, CES 5%, model E2): 1521 µg/g lipid | CED, Liver 9c-4o-13,14-dh-RA amount (F, CES 5%, model E4): 59.6 µg/g lipid | CED, Liver 9c-4o-13,14-dh-RA concentration (F, CES 5%, model E4): 55.5 µg/g lipid | CED-L, Liver 9c-4o-13,14-dh-RA amount (F, CES 5%, model E4): 37.4 µg/g lipid | CED-L, Liver 9c-4o-13,14-dh-RA concentration (F, CES 5%, model E4): 39.6 µg/g lipid | CED, Kidney all-trans RA amount (F, CES 10%, model E2): 6430 µg/g lipid | CED, Kidney all-trans RA concentration (F, CES 10%, model E2): 5720 µg/g lipid | CED, Kidney retinol amount (F, CES 10%, model E2): 4370 µg/g lipid | CED, Kidney retinol concentration (F, CES 10%, model E2): 4030 µg/g lipid | CED, Liver retinol amount (F, CES 10%, model E2): 5820 µg/g lipid | CED, Liver retinol concentration (F, CES 10%, model E2): 2060 µg/g lipid | CED, Liver retinyl esters amount (F, CES 10%, model E2): 3300 µg/g lipid | CED, Liver retinyl esters concentration (F, CES 10%, model E2): 1630 µg/g lipid | CED, Serum retinol concentration (F, CES 10%, model E2): 4820 µg/g lipid | CED-L, Kidney all-trans RA amount (F, CES 10%, model E2): 4088 µg/g lipid | CED-L, Kidney all-trans RA concentration (F, CES 10%, model E2): 4009 µg/g lipid | CED-L, Kidney retinol amount (F, CES 10%, model E2): 2731 µg/g lipid | CED-L, Kidney retinol concentration (F, CES 10%, model E2): 2630 µg/g lipid | CED-L, Liver retinol amount (F, CES 10%, model E2): 3032 µg/g lipid | CED-L, Liver retinol concentration (F, CES 10%, model E2): 1565 µg/g lipid | CED-L, Liver retinyl esters amount (F, CES 10%, model E2): 2477 µg/g lipid | CED-L, Liver retinyl esters concentration (F, CES 10%, model E2): 1375 µg/g lipid | CED-L, Serum retinol concentration (F, CES 10%, model E2): 2970 µg/g lipid | CED, Liver 9c-4o-13,14-dh-RA amount (F, CES 10%, model E4): 124 µg/g lipid | CED, Liver 9c-4o-13,14-dh-RA concentration (F, CES 10%, model E4): 115 µg/g lipid | CED-L, Liver 9c-4o-13,14-dh-RA amount (F, CES 10%, model E4): 77.9 µg/g lipid | CED-L, Liver 9c-4o-13,14-dh-RA concentration (F, CES 10%, model E4): 82.1 µg/g lipid | CED, Kidney retinol amount (M, CES 5%, model E2): 897 µg/g lipid | CED, Kidney retinol concentration (M, CES 5%, model E2): 863 µg/g lipid | CED, Liver all-trans RA amount (M, CES 5%, model E2): 95.1 µg/g lipid | CED, Liver all-trans RA concentration (M, CES 5%, model E2): 1920 µg/g lipid | CED, Liver retinol amount (M, CES 5%, model E2): 1860 µg/g lipid | CED, Liver retinyl esters amount (M, CES 5%, model E2): 620 µg/g lipid | CED-L, Kidney retinol amount (M, CES 5%, model E2): 638 µg/g lipid | CED-L, Kidney retinol concentration (M, CES 5%, model E2): 640 µg/g lipid | CED-L, Liver all-trans RA amount (M, CES 5%, model E2): 36.8 µg/g lipid | CED-L, Liver all-trans RA concentration (M, CES 5%, model E2): 1143 µg/g lipid | CED-L, Liver retinol amount (M, CES 5%, model E2): 1111 µg/g lipid | CED-L, Liver retinyl esters amount (M, CES 5%, model E2): 525 µg/g lipid | CED, Kidney retinyl esters amount (M, CES 5%, model E4): 38.8 µg/g lipid | CED, Kidney retinyl esters concentration (M, CES 5%, model E4): 42.2 µg/g lipid | CED, Liver retinol concentration (M, CES 5%, model E4): 31.2 µg/g lipid | CED, Liver retinyl esters concentration (M, CES 5%, model E4): 108 µg/g lipid | CED-L, Kidney retinyl esters amount (M, CES 5%, model E4): 12.5 µg/g lipid | CED-L, Kidney retinyl esters concentration (M, CES 5%, model E4): 13.6 µg/g lipid | CED-L, Liver retinol concentration (M, CES 5%, model E4): 18.8 µg/g lipid | CED-L, Liver retinyl esters concentration (M, CES 5%, model E4): 60.1 µg/g lipid | CED, Kidney retinol amount (M, CES 10%, model E2): 1750 µg/g lipid | CED, Kidney retinol concentration (M, CES 10%, model E2): 1690 µg/g lipid | CED, Liver all-trans RA amount (M, CES 10%, model E2): 196 µg/g lipid | CED, Liver all-trans RA concentration (M, CES 10%, model E2): 3750 µg/g lipid | CED, Liver retinol amount (M, CES 10%, model E2): 3820 µg/g lipid | CED, Liver retinyl esters amount (M, CES 10%, model E2): 1270 µg/g lipid | CED-L, Kidney retinol amount (M, CES 10%, model E2): 1244 µg/g lipid | CED-L, Kidney retinol concentration (M, CES 10%, model E2): 1250 µg/g lipid | CED-L, Liver all-trans RA amount (M, CES 10%, model E2): 76 µg/g lipid | CED-L, Liver all-trans RA concentration (M, CES 10%, model E2): 2233 µg/g lipid | CED-L, Liver retinol amount (M, CES 10%, model E2): 2282 µg/g lipid | CED-L, Liver retinyl esters amount (M, CES 10%, model E2): 1078 µg/g lipid | CED, Kidney retinyl esters amount (M, CES 10%, model E4): 78.3 µg/g lipid | CED, Kidney retinyl esters concentration (M, CES 10%, model E4): 85.2 µg/g lipid | CED, Liver retinol concentration (M, CES 10%, model E4): 66.6 µg/g lipid | CED, Liver retinyl esters concentration (M, CES 10%, model E4): 225 µg/g lipid | CED-L, Kidney retinyl esters amount (M, CES 10%, model E4): 25.2 µg/g lipid | CED-L, Kidney retinyl esters concentration (M, CES 10%, model E4): 27.5 µg/g lipid | CED-L, Liver retinol concentration (M, CES 10%, model E4): 40.0 µg/g lipid | CED-L, Liver retinyl esters concentration (M, CES 10%, model E4): 126 µg/g lipid | Emax (F, model E2, read-out: Maximum response, Kidney all-trans RA amount): 18.2% | Emax (F, model E2, read-out: Maximum response, Kidney all-trans RA concentration): 20.7% | Emax (F, model E2, read-out: Maximum response, Kidney retinol amount): 28% | Emax (F, model E2, read-out: Maximum response, Kidney retinol concentration): 30.7% | Emax (F, model E2, read-out: Maximum response, Liver retinol amount): -18.5% | Emax (F, model E2, read-out: Maximum response, Liver retinol concentration): -43.9% | Emax (F, model E2, read-out: Maximum response, Liver retinyl esters amount): -30.1% | Emax (F, model E2, read-out: Maximum response, Liver retinyl esters concentration): -51.9% | Emax (F, model E2, read-out: Maximum response, Serum retinol concentration): 25%
